In patent US20260001914A1, “MACROCYCLIC PEPTIDES TARGETING KRAS” (Merck Sharp & Dohme LLC, priority 2022, published 2026) one finds EC50 data, which are given here for 14 compounds.

Each structure is given as a SMILES string. *1 amine or outer side, *2 acyl side, *3 side chain or, on linkers, in order; H or OH if unused. Where a SMILES comes first, the peptide text is derived from it. Bridges are numbered along the chain shown (N, C = ends). [ ]: non-standard residue; d: D form. The star is where a group is joined. X34 = O=C(C[C@@H](Cc1ccccc1)C(=O)[*:2])C12CC(CN[*:1])(C1)C2; X44 = C[C@@H](c1ccccc1)[C@@H](C(=O)[*:2])N(C)[*:1]; Ala(pyrimidin-5-yl) = N[C@@H](Cc1cncnc1)C(=O)O; NMe3Pal(6-Me) = CN[C@@H](Cc1ccc(C)nc1)C(=O)O; NMePhe(3-Me) = CN[C@@H](Cc1cccc(C)c1)C(=O)O; X3 = CN([C@@H](Cc1cncnc1)C(=O)[*:2])[*:1]; X11 = CC(C)(F)CC[C@H](N[*:1])C(=O)[*:2]; X30 = O=C([C@H](Cc1ncccc1F)N[*:1])[*:2]; Nle(5,5-F2) = CC(F)(F)CC[C@H](N)C(=O)O; Phe(2-F) = N[C@@H](Cc1ccccc1F)C(=O)O; X31 = O=C([C@H](CCC1CC1)N[*:1])[*:2]; NMe3Pal = CN[C@@H](Cc1cccnc1)C(=O)O; X1 = O=C(C12CC(CN[*:1])(C1)C2)[*:2]; X17 = O=C([C@H](CCCCF)N[*:1])[*:2]; X41 = COCCC[C@H](N[*:1])C(=O)[*:2]; Ala(cPr) = N[C@@H](CC1CC1)C(=O)O; NMeF = CN[C@@H](Cc1ccccc1)C(=O)O; PhLac = O=C(O)[C@@H](O)Cc1ccccc1; X4 = O=C([C@H](CCCF)N[*:1])[*:2]; 3Pal = N[C@@H](Cc1cccnc1)C(=O)O; Ahp(2) = CCCCC[C@H](N)C(=O)O; Cba = N[C@@H](CC1CCC1)C(=O)O; hLeu = CC(C)CC[C@H](N)C(=O)O; αMeC = C[C@](N)(CS)C(=O)O; NMeA = CN[C@@H](C)C(=O)O; Nle = CCCC[C@H](N)C(=O)O; Pra = C#CC[C@H](N)C(=O)O; Pyrrolidide = C1CCN(*)C1

The assay deals with phosphorylation levels of ERK1/2 in AsPC-1 (homozygous KRAS-G12D) cells (Homo sapiens, UniProt P01116, G12D). In words: Cellular phospho-ERK assay in AsPC-1 cells (Alpha Screen), assay medium without fetal bovine serum.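 Further: signal taken as phospho-ERK over total ERK per well, both detected in one multiplex bead assay, EC50 from four-parameter logistic fit of dose-response curves.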 Format: cell-based. The settings on record: phospho-ERK AlphaScreen, 18 h.
Chain of phosphorylation levels of ERK1/2 in AsPC-1 (homozygous KRAS-G12D) cells (P01116 1-186 G12D): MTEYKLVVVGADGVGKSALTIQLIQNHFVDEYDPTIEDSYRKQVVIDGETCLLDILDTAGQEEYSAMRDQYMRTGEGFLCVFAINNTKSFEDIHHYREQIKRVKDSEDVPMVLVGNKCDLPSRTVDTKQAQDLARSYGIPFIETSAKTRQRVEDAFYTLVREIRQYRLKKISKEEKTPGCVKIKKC
With `CCCCC[C@@H]1NC(=O)[C@H](Cc2ccc(OC)cc2)NC(=O)[C@H](CC2CCC2)NC(=O)[C@H](Cc2cccnc2)NC(=O)[C@H](CCCNC(=N)N)NC(=O)[C@H](Cc2ccccc2)NC(=O)CSC[C@@](C)(C(N)=O)NC(=O)[C@H](Cc2ccc(C)nc2)N(C)C1=O` [compound 377, cyclo(F-R-3Pal-cBuA-TyrOMe-Ahp-NMe3Pal4Me-aMeCl-ClAc)] ({CH2CO}-FR[3Pal][Cba]Y(Me)[Ahp(2)][NMe3Pal(6-Me)][αMeC]-NH2; thioether N-8), the concentration for a half-maximal effect (EC50) is over 50.8 µM.

For `C[C@H]1C(=O)N[C@@H](Cc2cncnc2)C(=O)N[C@@H](CC2CC2)C(=O)N[C@@H](Cc2ccccc2F)C(=O)NC2CC/C=C\CC[C@@H](C(=O)NCC34CC(C3)(C4)C(=O)O[C@@H](Cc3ccccc3)C(=O)N1C)N(C)C2=O` [SEQ ID NO: 182, cyclo(FLac-NMeA-PyrimAla-cPrA-Phe2F-Hag-NMeHag-amBCP)], the EC50 was 41.2 µM.

With `C#CC[C@@H]1NC(=O)[C@H](CC2CC2)NC(=O)[C@H](Cc2cncnc2)NC(=O)[C@H](C)N(C)C(=O)[C@H](Cc2ccccc2)OC(=O)C23CC(CNC(=O)[C@H](Cc4ccccc4)N(C)C(=O)[C@H](CCC(C)C)NC1=O)(C2)C3` [compound 286, cyclo(FLac-NMeA-PyrimAla-cPrA-Pra-hL-NMeF-amBCP)] (cyclo([Ala(cPr)][Pra][hLeu][NMeF][X1][PhLac][NMeA][Ala(pyrimidin-5-yl)])), the midpoint of the response, the EC50, lay at 30.3 µM.

`CCCC[C@@H]1NC(=O)[C@H](Cc2cncnc2)NC(=O)[C@H](C)N(C)C(=O)[C@H](Cc2ccccc2)OC(=O)C23CC(CNC(=O)[C@H](Cc4ccccc4)N(C)C(=O)[C@H](CCCCF)NC(=O)[C@H](Cc4ccccc4F)NC1=O)(C2)C3` [compound 131, cyclo(FLac-NMeA-PyrimAla-Nle-Phe2F-NleF-NMeF-amBCP)] (cyclo([NMeA][Ala(pyrimidin-5-yl)][Nle][Phe(2-F)][X17][NMeF][X1][PhLac])) had a half-maximal effective concentration (EC50) of 2.33 µM.

Consider `C[C@@H](c1ccccc1)[C@H]1C(=O)NCC23CC(C2)(C3)C(=O)O[C@@H](Cc2ccccc2)C(=O)N(C)[C@@H](C)C(=O)N[C@@H](Cc2cncnc2)C(=O)N[C@@H](CC2CC2)C(=O)N[C@@H](Cc2ccccc2F)C(=O)N[C@@H](CCC(C)(C)F)C(=O)N1C` [compound 340, cyclo(FLac-NMeA-PyrimAla-cPrA-Phe2F-hL3F-NMeSbMeF-amBCP)] (cyclo([Ala(cPr)][Phe(2-F)][X11][X44][X1][PhLac][NMeA][Ala(pyrimidin-5-yl)])), for which a half-maximal effect (EC50) was put at 4.25 µM.

`CC(C)CC[C@@H]1NC(=O)[C@H](Cc2ccccc2F)NC(=O)[C@H](CCCF)NC(=O)[C@H](Cc2cncnc2)NC(=O)[C@H](C)N(C)C(=O)[C@H](Cc2ccccc2)OC(=O)C23CC(CNC(=O)[C@H](Cc4ccccc4)N(C)C1=O)(C2)C3` [compound 133, cyclo(FLac-NMeA-PyrimAla-NvaF-Phe2F-hL-NMeF-amBCP)] (cyclo([NMeA][Ala(pyrimidin-5-yl)][X4][Phe(2-F)][hLeu][NMeF][X1][PhLac])) gave an EC50 of 2.26 µM.

As to `CCCC[C@@H]1NC(=O)[C@H](Cc2cncnc2)NC(=O)[C@H](C)N(C)C(=O)[C@H](Cc2ccccc2)OC(=O)C23CC(CNC(=O)[C@H](Cc4cccnc4)N(C)C(=O)[C@H](CCCC)NC(=O)[C@H](Cc4ccccc4F)NC1=O)(C2)C3` [compound 237, cyclo(FLac-NMeA-PyrimAla-Nle-Phe2F-Nle-NMe3Pal-amBCP)] (cyclo([NMe3Pal][X1][PhLac][NMeA][Ala(pyrimidin-5-yl)][Nle][Phe(2-F)][Nle])), the EC50 came to 13.4 µM.

`CCCC[C@@H]1NC(=O)[C@H](CCCOC)NC(=O)[C@H](CC2CCC2)NC(=O)[C@H](Cc2cccnc2)NC(=O)[C@H](CCCNC(=N)N)NC(=O)[C@H](Cc2ccccc2)NC(=O)CSC[C@@](C)(C(N)=O)NC(=O)[C@H](Cc2ccccc2)N(C)C1=O` [compound 55, cyclo(F-R-3Pal-cBuA-NvaOMe-Nle-NMeF-aMeCl-ClAc)] ({CH2CO}-FR[3Pal][Cba][X41][Nle][NMeF][αMeC]-NH2; thioether N-8): the EC50 is over 50.8 µM.

In turn, `CCCCC[C@@H]1NC(=O)[C@H](Cc2ccc(OC)cc2)NC(=O)[C@H](CC2CCC2)NC(=O)[C@H](Cc2cccnc2)NC(=O)[C@H](CCCNC(=N)N)NC(=O)[C@H](Cc2ccccc2)NC(=O)CSC[C@@](C)(C(N)=O)NC(=O)[C@H](Cc2cncnc2)N(C)C1=O` [compound 376, cyclo(F-R-3Pal-cBuA-TyrOMe-Ahp-NMeAlaPyrim-aMeCl-ClAc)] ({CH2CO}-FR[3Pal][Cba]Y(Me)[Ahp(2)][X3][αMeC]-NH2; thioether N-8) registered a concentration giving a half-maximal response (EC50) of over 50.8 µM.

Turning to `CCCC[C@@H]1NC(=O)[C@H](Cc2cccnc2)NC(=O)[C@H](C)N(C)C(=O)[C@H](Cc2ccccc2)NC(=O)C23CC(CNC(=O)[C@H](Cc4cccnc4)N(C)C(=O)[C@H](CCCC)NC(=O)[C@H](Cc4ccccc4F)NC1=O)(C2)C3` [compound 162, cyclo(F-NMeA-3Pal-Nle-Phe2F-Nle-NMe3Pal-amBCP)] (cyclo(F[NMeA][3Pal][Nle][Phe(2-F)][Nle][NMe3Pal][X1])), the EC50 is over 50.8 µM.

As for `C[C@H]1C(=O)N[C@@H](Cc2cncnc2)C(=O)N[C@@H](CC2CC2)C(=O)N[C@@H](Cc2ccccc2F)C(=O)N[C@@H](CCC(C)(F)F)C(=O)N(C)[C@@H](Cc2ccccc2)C(=O)NCC23CC(C2)(C3)C(=O)C[C@@H](Cc2ccccc2)C(=O)N1C` [compound 290, cyclo(CPhe-NMeA~PyrimAla-cPrA-Phe2F-Nle3F2-NMeF-amBCP)] (cyclo([Ala(cPr)][Phe(2-F)][Nle(5,5-F2)][NMeF][X34][NMeA][Ala(pyrimidin-5-yl)])), the EC50 was 1.07 µM.

`Cc1cccc(C[C@H]2C(=O)NCC34CC(C3)(C4)C(=O)O[C@@H](Cc3ccccc3)C(=O)N(C)[C@@H](C)C(=O)N[C@@H](Cc3cncnc3)C(=O)N[C@@H](CC3CC3)C(=O)N[C@@H](Cc3ccccc3F)C(=O)N[C@@H](CCC3CC3)C(=O)N2C)c1` [compound 334, cyclo(FLac-NMeA-PyrimAla-cPrA-Phe2F-hcPrA-NMePhe3Me-amBCP)] (cyclo([Ala(cPr)][Phe(2-F)][X31][NMePhe(3-Me)][X1][PhLac][NMeA][Ala(pyrimidin-5-yl)])): the concentration giving a half-maximal response (EC50) came out at 0.224 µM.

Turning to `CCCC[C@@H]1NC(=O)[C@H](Cc2cncnc2)NC(=O)[C@H](C)N(C)C(=O)[C@H](Cc2ccccc2)OC(=O)C23CC(CNC(=O)[C@H](Cc4ccccc4)N(C)C(=O)[C@H](CCCC)NC(=O)[C@H](Cc4ncccc4F)NC1=O)(C2)C3` [compound 229, cyclo(FLac-NMeA-PyrimAla-Nle-2Pal6F-Nle-NMeF-amBCP)] (cyclo([NMeA][Ala(pyrimidin-5-yl)][Nle][X30][Nle][NMeF][X1][PhLac])), the EC50 is 48.7 µM.

Consider `CCCCC[C@@H]1NC(=O)[C@H](CC(=O)N2CCCC2)NC(=O)[C@H](CC2CCC2)NC(=O)[C@H](Cc2cccnc2)NC(=O)[C@H](CCCNC(=N)N)NC(=O)[C@H](Cc2ccccc2)NC(=O)CSC[C@@](C)(C(N)=O)NC(=O)[C@H](Cc2ccccc2)N(C)C1=O` [compound 373, cyclo(F-R~3Pal-cBuA-PyD-Ahp-NMeF-aMeCl-ClAc)] ({CH2CO}-FR[3Pal][Cba]D(Pyrrolidide)[Ahp(2)][NMeF][αMeC]-NH2; thioether N-8), for which the EC50 was over 50.8 µM.
